Laboratory results reported in PubChem BioAssay (NCI).
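96-well plates; 48 h exposure; 5 concentrations. Endpoints by linear interpolation between flanking doses. Not reached: highest tested concentration assigned. GI50 marks 50% less growth. Definition used: TGI = concentration required for complete inhibition of growth.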

Tests used:
Assay in all cases: NCI-60 cell line screen, 48 h
[1] = tested on: SF-539 CNS
[2] = tested on: OVCAR-4 ovarian
[3] = tested on: OVCAR-5 ovarian
[4] = tested on: NCI-H460 lung
[5] = tested on: MDA-MB-231 breast
[6] = tested on: NCI-H23 lung
[7] = tested on: ACHN renal
[8] = tested on: SK-MEL-28 melanoma
[9] = tested on: SNB-19 CNS
[10] = tested on: DU-145 prostate
[11] = tested on: HCT-116 colon
[12] = tested on: MOLT-4 leukemia
[13] = tested on: EKVX NSCLC
[14] = tested on: MALME-3M melanoma
[15] = tested on: HOP-92 NSCLC
[16] = tested on: SR leukemia
[17] = tested on: SNB-75 CNS
[18] = tested on: SK-MEL-2 melanoma
[19] = tested on: PC-3 prostate
[20] = tested on: SF-295 CNS
[21] = tested on: HCT-15 colon
[22] = tested on: CAKI-1 renal
[23] = tested on: SK-MEL-5 melanoma
[24] = tested on: BT-549 breast
[25] = tested on: UO-31 renal
[26] = tested on: COLO 205 colon
[27] = tested on: HT29 colon
[28] = tested on: TK-10 renal
[29] = tested on: MCF7 breast

Structure (SMILES): C[C@H](Nc1cc(Cl)nc2c1cnn2[C@@H]1O[C@H](COP(=O)(O)CP(=O)(O)O)[C@@H](O)[C@H]1O)c1ccccc1F
- TGI [1]: > 100 µM
- GI50 [2]: > 100 µM
- TGI [2]: > 100 µM
- GI50 [3]: > 100 µM
- TGI [3]: > 100 µM
- GI50 [4]: > 100 µM
- TGI [4]: > 100 µM
- GI50 [5]: > 100 µM
- TGI [5]: > 100 µM
- GI50 [6]: > 100 µM
- TGI [6]: > 100 µM
- GI50 [7]: > 100 µM
- TGI [7]: > 100 µM
- GI50 [8]: > 100 µM
- TGI [8]: > 100 µM
- GI50 [9]: > 100 µM
- TGI [9]: > 100 µM
- GI50 [10]: > 100 µM
- TGI [10]: > 100 µM
- GI50 [11]: > 100 µM
- TGI [11]: > 100 µM
- GI50 [12]: > 100 µM
- TGI [12]: > 100 µM
- GI50 [13]: > 100 µM
- TGI [13]: > 100 µM
- GI50 [14]: > 100 µM
- TGI [14]: > 100 µM
- GI50 [15]: > 100 µM
- TGI [15]: > 100 µM
- GI50 [16]: > 100 µM
- TGI [16]: > 100 µM
- GI50 [17]: > 100 µM
- TGI [17]: > 100 µM
- GI50 [18]: > 100 µM
- TGI [18]: > 100 µM
- GI50 [19]: > 100 µM
- TGI [19]: > 100 µM
- GI50 [20]: > 100 µM
- TGI [20]: > 100 µM
- GI50 [21]: > 100 µM
- TGI [21]: > 100 µM
- GI50 [22]: > 100 µM
- TGI [22]: > 100 µM
- GI50 [23]: > 100 µM
- TGI [23]: > 100 µM
- GI50 [24]: > 100 µM
- TGI [24]: > 100 µM
- GI50 [25]: > 100 µM
- TGI [25]: > 100 µM
- GI50 [26]: > 100 µM
- TGI [26]: > 100 µM
- GI50 [27]: > 100 µM
- TGI [27]: > 100 µM
- GI50 [28]: > 100 µM
- TGI [28]: > 100 µM
- GI50 [29]: > 100 µM
- TGI [29]: > 100 µM
